Source: paper PMC4339887, “Selective Sirt2 inhibition by ligand-induced rearrangement of the active site” (Nature Communications, 2015)
“Also recorded” adds a separate entry of the source.

Key:
[1] = test system: mitochondrial lysine-acetylation in HEK293 cells; test: mitochondrial protein acetylation, western blot of mitochondrial extracts; assay type: cell-based; settings: 16 h
Method: page 27: Cell cultiva tion. HEK-293 cells (ATCC accession no. CRL-1573) were grown in Dulbecco's modified Eagle's medium (DMEM, PAA) containing 10% (vol/vol) fetal calf serum (FCS, PAA), 1% (vol/vol) penicillin (PAA), 1% (vol/vol) streptomycin (PAA), 1% (vol/vol), L- glutamine (PAA) at 37 °C in a 5% (vol/vol) CO2 atmosphere. Mitochondrial extra ction. HEK-293 cells (ATCC accession no. CRL-1573) were treated with nicotinamide or […]2 at the indicated concentrations for 16 h. Cells were washed in PBS and lysed in 5 packed cell volumes of lysis buffer (20 mM HEPES/KOH, 250 mM sucrose; 10 mM KCl, 1.5 mM MgCl2, 1 mM EDTA, 1 mM EGTA, 1 mM DTT; 0.1 mM PMSF, 1uComplete Protease Inhibitor Cocktail (Roche), pH 7.5). Cells were then homogenized in a Dounce homogenizer and 10% (vol/vol) of sample was removed for use as whole cell extract (WCE). To the remaining lysate, unbroken cells and nuclei were removed by centrifugation (10 min, 800g). The supernatant was transferred and centrifuged (10 min, 7,000g) to pellet mitochondria. Mitochondria were washed twice in lysis buffer, repeating centrifugation after each wash, followed by resuspending washed mitochondria in lysis buffer. […] Lysates were cleared by centrifugation, protein concentrations were quantitated and normalized with 1u Laemmli Buffer. […]

[2] = test system: α-tubulin acetylation in HeLa cells; test: tubulin acetylation, western blot; assay type: cell-based; settings: various concentrations, 5 h
Source text: Cell samples were then separated using SDS–PAGE (12.5% (w/v) polyacrylamide), transferred to an activated nitrocellulose membrane (Bio-Rad), blocked with non-fat dry milk (Roth, 5% (w/v), TBS, 0.1% (v/v) Tween 20) and probed with an anti-acetyl-α-tubulin antibody (1:1,000, Sigma-Aldrich, T6793) and an anti-GAPDH antibody (1:2,000–1:5,000, Sigma-Aldrich, G9545) as a loading control (Fusion SL, peqlab). An uncropped blot is shown in Supplementary Fig. 8.

[3] = molecular target: T1, human Sirt3 (Homo sapiens, UniProt Q9NTG7); test: HPLC-based conversion assay, non-labelled acetyl-lysine α-tubulin peptide; settings: 100 μM, acetyl-lysine substrate
T1 sequence (Q9NTG7 118-395): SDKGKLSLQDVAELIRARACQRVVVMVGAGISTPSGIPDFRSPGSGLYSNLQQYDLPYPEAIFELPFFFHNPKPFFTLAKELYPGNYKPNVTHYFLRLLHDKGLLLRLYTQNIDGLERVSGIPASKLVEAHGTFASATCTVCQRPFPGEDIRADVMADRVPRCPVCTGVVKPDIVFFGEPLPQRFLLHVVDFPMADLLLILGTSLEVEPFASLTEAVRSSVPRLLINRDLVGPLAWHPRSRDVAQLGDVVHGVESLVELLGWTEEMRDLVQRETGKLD

[4] = molecular target: T2, human Sirt1 (Homo sapiens, UniProt Q96EB6); test: as above; settings: read-out: inhibition of Sirt1
T2 sequence (Q96EB6 133-747): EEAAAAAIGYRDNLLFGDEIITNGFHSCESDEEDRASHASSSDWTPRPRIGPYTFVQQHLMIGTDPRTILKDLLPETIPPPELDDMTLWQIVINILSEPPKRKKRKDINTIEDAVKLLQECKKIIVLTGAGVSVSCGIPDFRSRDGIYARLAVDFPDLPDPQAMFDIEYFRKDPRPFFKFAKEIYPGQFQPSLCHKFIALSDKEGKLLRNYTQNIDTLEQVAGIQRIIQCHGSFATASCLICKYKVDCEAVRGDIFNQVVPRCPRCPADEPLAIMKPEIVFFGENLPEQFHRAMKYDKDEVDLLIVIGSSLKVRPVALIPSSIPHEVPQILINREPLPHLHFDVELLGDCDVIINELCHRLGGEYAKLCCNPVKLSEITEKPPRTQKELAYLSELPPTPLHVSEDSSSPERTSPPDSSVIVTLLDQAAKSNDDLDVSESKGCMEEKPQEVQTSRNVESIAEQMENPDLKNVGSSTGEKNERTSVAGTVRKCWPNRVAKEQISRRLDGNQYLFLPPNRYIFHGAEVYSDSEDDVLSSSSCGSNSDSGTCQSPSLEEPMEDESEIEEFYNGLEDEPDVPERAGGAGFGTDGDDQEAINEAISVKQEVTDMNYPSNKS

[5] = molecular target: T3, human Sirt5 (Homo sapiens, UniProt Q9NXA8); test: HPLC-based assay, non-labelled succinyl-lysine peptide; assay type: biochemical; settings: 200 μM, succinyl-lysine substrate
T3 construct: human Sirt5_34–302 (Uniprot: Q9NXA8); made in house
T3 sequence (Q9NXA8 34-302): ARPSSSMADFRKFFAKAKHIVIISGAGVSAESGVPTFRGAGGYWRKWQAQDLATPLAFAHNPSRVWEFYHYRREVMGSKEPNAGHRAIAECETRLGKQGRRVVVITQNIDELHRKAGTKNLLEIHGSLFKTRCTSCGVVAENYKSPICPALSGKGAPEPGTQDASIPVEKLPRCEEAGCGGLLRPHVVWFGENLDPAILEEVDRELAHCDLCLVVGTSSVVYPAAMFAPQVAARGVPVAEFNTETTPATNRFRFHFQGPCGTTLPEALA

How did the “acetylation of mitochondrial proteins” value [1] turn out when `Cc1cc(C)nc(SCC(=O)Nc2ncc(Cc3cccc4ccccc34)s2)n1` [SirReal2] was run?
The value was “does not alter”.

And the “level of α-tubulin acetylation” value [2]?
Its value is “tubulin hyperacetylation; also recorded: significant increase”.

What about the “effect on activity of Sirt3” value [3] of the same molecule?
The value was “very little effect”.

What about the inhibition at 100 µM [4] of the same molecule?
Its inhibition at 100 µM is 22%.

And the “effect on activity of Sirt5” value [5]?
The value was “very little effect”.
